The target of test [1] is T1, phosphorylated EGFR (pEGFR) (Homo sapiens, UniProt P00533).
T1 construct: performed to measure phosphorylated EGFR levels using A431 cells; endogenous in cells; host or cells: A431
The test is described as follows: Detection of phosphorylated EGFR (pEGFR) in EGF-stimulated A431 cells (AlphaLISA). To be noted: A431 cells (10% FBS), 4 hours incubation, EGF 30 ng/mL for 10 minutes. Type of test: cell-based. As for the experimental part: Enzyme-linked immunosorbent assays (ELISA) were performed to measure phosphorylated EGFR levels using A431 cells (10% FBS). A431 (1.0*10^4 cells/40 μl/well) cells were seeded in 384 well. Compounds were dissolved in DMSO, serially diluted in DMSO and then were added, mixed, and incubated for 4 hours at 37° C., 5% CO2. Following the 4-hours incubation, cells were stimulated for 10 minutes with EGF (Invitrogen, cat #PHG0311) at a final concentration of 30 ng/mL in the incubator. The media was aspirated and cells were lysed in 10 μL lysis buffer with protease and phosphatase inhibitors (PerkinElmer, cat #ALSU-PEGFR-A50K). The plates were placed on a shaker for 5 minutes and then incubated for 30 min at 4° C. for complete lysis. The lysate was transferred to an Optiplate (Perkin Elmer, cat #6007290).
Acceptor mix (PerkinElmer, cat #ALSU-PEGFR-A50K) was prepared just before use and 5 μL was dispensed to all the wells, followed by a 1.5-2 h incubation at room temperature in dark. The donor mix (PerkinElmer, cat #ALSU-PEGFR-A50K) was prepared under low light conditions prior to use and 5 μl of donor mix was added to all the wells under subdued lighting or green filters. The plates were placed on a shaker for 5 min, sealed, and incubated overnight at room temperature in dark. Plates were read on the Envision (PerkinElmer) using standard AlphaLISA settings.
The percentage of inhibition on EGFR phosphorylation was calculated following equation: % Inhibition=100×(LumHC−LumSample)/(LumHC−LumLC). The low and high controls (LC/HC) are generated from lysate from wells with cells treated with DMSO or […] Staurosporine (BioAustralis, cat #BIA-S1086), […]. IC50 values were calculated by fitting the Curve using XLfit (v5.3.1.3), equation 201: Y=Bottom+ (Top−Bottom)/(1+10^((LogIC50−X)*HillSlope)).

In test [2] the target is T2, phosphorylated ERBB2 (pERBB2) (Homo sapiens, UniProt P04626).
T2 construct: endogenous in cells; host or cells: BT-474
The experiment in a line: Detection of phosphorylated ERBB2 (pERBB2) by ELISA in BT-474 cells. The test is classed as cell-based. To be noted: four hour incubation with compound. As to the method:
BT-474 cells were seeded into a 96-well at 2.0*10^4 cells/100 μl/well. Compounds were dissolved and serially diluted in DMSO. The compounds were then were added, mixed, and incubated for four hours at 37° C., 5% CO2. Compounds were added using four-fold dilutions at final concentrations ranging from 10 μM to 0.01 nM. Following the four hour incubation with compounds, cell lysates were prepared. Plates were centrifuged for 5 min at 3000 RPM, and supernatant was removed from each well. Cells were washed 3 times by resuspension in 150 μl PBS, followed by centrifugation and removal of the supernatant, as above. […] Cells were incubated with lysis buffer for 1 hour at 4° C., and then stored at -80° C. Enzyme-linked immunosorbent assays (ELISA) were performed to measure phosphorylated ERBB2 levels. […] The next day, plates were washed with PBS+0.05% Tween20 (PBST). 150 μl of 5% BSA blocking solution was added for 1 hour at room temperature, with shaking. Plates were washed with PBST. Cell lysates were thawed and 100 μl of lysate was added to the ELISA plate. The plates were incubated for 2 hours at room temperature, with shaking. […] Plates were incubated for 1 hour at room temperature, with shaking. Plates were then washed with PBST, and 100 μl TMB substrate solution (R&D Systems, cat #DY999) was added. Plate were incubated in the dark for 20 minutes at room temperature. 50 μl of Stop solution (R&D Systems, cat #DY994) (50 μl) was added to each well and mixed. Optical density at 450 nm was read on an EnSpire plate reader (Perkin Elmer). The remaining kinase activity by calculated using the following formula: % Relative activity=100×([…]). The low and high control values (“LC” and “HC”) were generated from lysate from wells without cells or with cells treated with 0.1% DMSO, respectively.
Background: ELISA stands for enzyme-linked immunosorbent assay.

For test [3], the target named is Ba/F3 ERBB2 YVMA (Homo sapiens, UniProt P04626, DUP772-775, cells depend on it). The experiment in a line: Cell viability assay (CellTiter Glo) in Ba/F3 cells engineered to express ERBB2 YVMA. Type of test: cell-based, mouse. To be noted: Ba/F3 cells expressing human ERBB2 YVMA mutant, 72 hours, % viability, read-out: Ba/F3 ERBB2 YVMA IC50. As to the method: Cells were treated with compounds, and cell viability was measured as a metric of kinase inhibition.
The Ba/F3 cell line is IL-3-dependent mouse cell line derived from the C3H mouse strain. Ba/F3 cell lines were engineered to express human ERBB2 or EGFR kinases, rendering the cells IL-3 independent. The lines were generated via retroviral transduction utilizing a Moloney murine leukemia virus (MMLV) promoter, and constructs are stably integrated into the cell genome. The sequences of the ERBB2 and EGFR genes used were NCBI Reference Sequences NM_004448.3 and NM_005228.3, respectively.
Similarly, Ba/F3 cell lines engineered to express EGFR, ERBB2, or ERBB2 mutants were grown, harvested, counted and seeded at 3000 cells per well in 96-well plates for the data sets shown in Tables B3-B4. A subset of wells contained media only (low control, “LC”).
Table B1 provides the growth media and number of cells seeded per well for the each cell line.
Compounds were dissolved in DMSO and serially diluted. Serially-diluted compound or a DMSO only control (high control, “HC”) was added to the plated cells in each well. […] The final proportion of DMSO never exceeded 0.1%.
Plates were placed in a 37° C., 5% CO2 incubator for 72 hours. Plates were then removed from the incubator and equilibrated for 15 minutes at room temperature. 40 μl of CellTiter Glo reagent (Promega) was added to measure the relative level of metabolically active cells by quantifying intracellular ATP concentrations. Plates were incubated for 30 minutes at room temperature, and luminescence was measured. Percent viability was normalized to a vehicle control only using the following formula: % viability=100×(Lumsample−LumLC)/(LumHC−LumLC). Graphical curves were fitted using a nonlinear regression model with a sigmoidal dose response.
(Cellular ATP, detected with luciferase, serves as a proxy for viable cell number.)

The structures appear in SMILES notation.

As usually defined, the IC50 is the midpoint of a concentration-inhibition curve.

T2 sequence (P04626 23-1255): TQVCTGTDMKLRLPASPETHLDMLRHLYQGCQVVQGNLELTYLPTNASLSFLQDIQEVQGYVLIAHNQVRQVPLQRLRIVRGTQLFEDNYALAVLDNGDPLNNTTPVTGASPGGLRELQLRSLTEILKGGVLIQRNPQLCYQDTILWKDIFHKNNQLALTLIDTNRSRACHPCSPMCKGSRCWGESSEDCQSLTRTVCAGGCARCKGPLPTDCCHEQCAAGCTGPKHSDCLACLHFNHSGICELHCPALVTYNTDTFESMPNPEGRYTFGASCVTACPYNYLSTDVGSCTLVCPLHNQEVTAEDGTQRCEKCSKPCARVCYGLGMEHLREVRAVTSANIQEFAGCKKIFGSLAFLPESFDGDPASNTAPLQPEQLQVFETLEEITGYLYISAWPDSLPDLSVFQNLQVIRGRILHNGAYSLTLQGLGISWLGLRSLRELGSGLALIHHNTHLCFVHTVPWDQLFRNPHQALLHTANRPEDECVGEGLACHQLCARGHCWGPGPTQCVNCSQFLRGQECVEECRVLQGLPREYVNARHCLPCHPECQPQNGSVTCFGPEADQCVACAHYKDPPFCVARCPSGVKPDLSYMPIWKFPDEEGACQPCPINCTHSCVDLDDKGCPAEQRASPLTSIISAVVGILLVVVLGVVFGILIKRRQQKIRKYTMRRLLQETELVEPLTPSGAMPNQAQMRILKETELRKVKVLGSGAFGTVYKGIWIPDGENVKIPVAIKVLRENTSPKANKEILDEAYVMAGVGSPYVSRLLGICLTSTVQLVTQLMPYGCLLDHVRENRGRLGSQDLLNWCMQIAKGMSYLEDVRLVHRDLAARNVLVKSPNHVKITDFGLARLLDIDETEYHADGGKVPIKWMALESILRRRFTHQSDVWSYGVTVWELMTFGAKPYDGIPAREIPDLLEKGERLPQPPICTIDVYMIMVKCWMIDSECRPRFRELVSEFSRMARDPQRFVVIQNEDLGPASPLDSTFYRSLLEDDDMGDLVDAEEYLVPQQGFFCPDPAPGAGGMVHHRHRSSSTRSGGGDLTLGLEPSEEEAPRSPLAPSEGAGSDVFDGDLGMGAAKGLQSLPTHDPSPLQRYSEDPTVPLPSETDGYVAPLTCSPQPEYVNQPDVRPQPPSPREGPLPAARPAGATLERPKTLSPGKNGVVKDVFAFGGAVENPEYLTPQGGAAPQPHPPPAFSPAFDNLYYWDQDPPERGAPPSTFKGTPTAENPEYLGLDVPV
Sequence of Ba/F3 ERBB2 YVMA (P04626 with tags, fused parts or gaps DUP772-775): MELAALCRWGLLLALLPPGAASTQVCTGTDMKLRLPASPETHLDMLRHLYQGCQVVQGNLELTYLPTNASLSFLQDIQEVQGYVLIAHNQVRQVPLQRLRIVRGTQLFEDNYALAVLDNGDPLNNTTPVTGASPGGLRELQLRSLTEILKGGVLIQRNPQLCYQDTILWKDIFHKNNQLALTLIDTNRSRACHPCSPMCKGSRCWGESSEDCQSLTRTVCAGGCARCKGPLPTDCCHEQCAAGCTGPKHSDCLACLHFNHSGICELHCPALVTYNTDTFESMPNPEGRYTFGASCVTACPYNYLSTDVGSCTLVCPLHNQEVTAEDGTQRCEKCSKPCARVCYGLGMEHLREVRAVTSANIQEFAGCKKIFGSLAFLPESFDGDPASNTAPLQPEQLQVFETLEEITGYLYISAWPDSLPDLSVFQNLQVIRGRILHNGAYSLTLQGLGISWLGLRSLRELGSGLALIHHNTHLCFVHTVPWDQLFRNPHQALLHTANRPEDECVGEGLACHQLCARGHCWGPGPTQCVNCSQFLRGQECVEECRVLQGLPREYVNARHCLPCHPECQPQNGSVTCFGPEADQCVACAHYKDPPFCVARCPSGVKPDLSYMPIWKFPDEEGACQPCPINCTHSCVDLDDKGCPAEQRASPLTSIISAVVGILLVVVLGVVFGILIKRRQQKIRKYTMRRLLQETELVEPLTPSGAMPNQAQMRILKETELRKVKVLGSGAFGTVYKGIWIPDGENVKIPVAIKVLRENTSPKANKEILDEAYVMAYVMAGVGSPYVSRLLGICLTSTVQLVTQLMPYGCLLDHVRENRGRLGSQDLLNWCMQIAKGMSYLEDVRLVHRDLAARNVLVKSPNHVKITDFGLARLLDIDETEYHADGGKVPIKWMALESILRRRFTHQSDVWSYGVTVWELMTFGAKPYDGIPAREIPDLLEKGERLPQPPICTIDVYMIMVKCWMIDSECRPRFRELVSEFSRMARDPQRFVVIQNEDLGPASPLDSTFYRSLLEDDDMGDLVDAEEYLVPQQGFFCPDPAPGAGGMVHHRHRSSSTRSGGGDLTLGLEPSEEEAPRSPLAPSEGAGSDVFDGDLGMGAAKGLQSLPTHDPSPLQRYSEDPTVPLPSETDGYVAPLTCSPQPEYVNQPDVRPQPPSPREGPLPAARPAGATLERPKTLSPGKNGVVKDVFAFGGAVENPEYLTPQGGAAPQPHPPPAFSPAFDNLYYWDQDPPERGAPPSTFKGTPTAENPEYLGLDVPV
T1 sequence (P00533 25-1210): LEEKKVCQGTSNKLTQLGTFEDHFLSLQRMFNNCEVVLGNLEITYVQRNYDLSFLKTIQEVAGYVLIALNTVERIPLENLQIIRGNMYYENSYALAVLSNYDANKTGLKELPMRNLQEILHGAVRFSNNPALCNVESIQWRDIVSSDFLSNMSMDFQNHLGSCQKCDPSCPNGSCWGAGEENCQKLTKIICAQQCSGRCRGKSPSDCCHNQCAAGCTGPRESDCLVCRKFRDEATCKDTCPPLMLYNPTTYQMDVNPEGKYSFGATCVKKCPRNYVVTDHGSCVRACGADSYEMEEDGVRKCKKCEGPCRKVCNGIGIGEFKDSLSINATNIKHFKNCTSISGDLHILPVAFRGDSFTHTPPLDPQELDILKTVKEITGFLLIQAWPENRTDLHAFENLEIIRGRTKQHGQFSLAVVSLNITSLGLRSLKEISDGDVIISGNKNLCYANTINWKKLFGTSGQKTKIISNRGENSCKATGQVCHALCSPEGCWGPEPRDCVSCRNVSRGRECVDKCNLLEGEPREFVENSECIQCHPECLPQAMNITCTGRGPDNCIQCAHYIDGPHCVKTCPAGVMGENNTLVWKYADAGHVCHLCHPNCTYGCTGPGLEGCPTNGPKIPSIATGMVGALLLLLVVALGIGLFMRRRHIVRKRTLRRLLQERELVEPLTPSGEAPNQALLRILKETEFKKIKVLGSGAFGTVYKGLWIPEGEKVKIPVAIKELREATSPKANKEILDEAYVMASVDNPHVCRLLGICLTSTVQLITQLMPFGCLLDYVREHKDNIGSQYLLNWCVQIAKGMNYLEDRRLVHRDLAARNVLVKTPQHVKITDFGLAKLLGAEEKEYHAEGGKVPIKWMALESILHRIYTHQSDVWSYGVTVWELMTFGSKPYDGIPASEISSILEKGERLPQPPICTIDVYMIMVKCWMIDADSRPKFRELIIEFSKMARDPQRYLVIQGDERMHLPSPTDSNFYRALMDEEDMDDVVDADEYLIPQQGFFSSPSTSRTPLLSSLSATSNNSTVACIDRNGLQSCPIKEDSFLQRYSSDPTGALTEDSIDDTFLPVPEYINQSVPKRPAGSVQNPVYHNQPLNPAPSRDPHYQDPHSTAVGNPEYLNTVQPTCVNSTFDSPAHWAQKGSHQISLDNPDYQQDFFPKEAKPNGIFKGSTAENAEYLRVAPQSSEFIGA

`C=C(F)C(=O)N1CCN(c2ccc3ncnc(Nc4ccc(Oc5ccn6ncnc6c5)c(C)c4)c3n2)CC1` [Compound 13, 2-fluoro-1-(4-{4-[(3-methyl-4-{[1,2,4]triazolo[1,5-a]pyridin-7-yloxy}phenyl)amino]pyrido[3,2-d]pyrimidin-6-yl}piperazin-1-yl)prop-2-en-1-one]: the IC50 in test [1] was above 10 µM; in test [2], 97.5 nM. In addition, the GI50 in test [3] came to 232 nM.

In the case of `C=CC(=O)N1CCN(c2ccc3ncnc(Nc4ccc(Oc5ccc6c(c5)ncn6C)c(C)c4)c3n2)CC1` [Compound 14, 1-{4-[4-({3-methyl-4-[(1-methyl-1,3-benzodiazol-5-yl)oxy]phenyl}amino)pyrido[3,2-d]pyrimidin-6-yl]piperazin-1-yl}prop-2-en-1-one], the IC50 in test [1] amounted to 0.403 µM; in test [2], 14.3 nM. Besides, the GI50 in test [3] amounted to 7.83 nM.

As for `C=CC(=O)N1C2CC1CN(c1ccc3ncnc(Nc4ccc(Oc5ccn6ncnc6c5)c(C)c4)c3n1)C2` [Compound 15, 1-(3-{4-[(3-methyl-4-{[1,2,4]triazolo[1,5-a]pyridin-7-yloxy}phenyl)amino]pyrido[3,2-d]pyrimidin-6-yl}-3,6-diazabicyclo[3.1.1]heptan-6-yl)prop-2-en-1-one], the IC50 in test [1] is 0.629 µM; in test [2] it was 19.8 nM. Besides, in test [3], the GI50 was 17.4 nM.

Take `C=CC(=O)N1CCCN(c2ccc3ncnc(Nc4ccc(Oc5ccn6ncnc6c5)c(C)c4)c3n2)CC1` [Compound 16, 1-(4-{4-[(3-methyl-4-{[1,2,4]triazolo[1,5-a]pyridin-7-yloxy}phenyl)amino]pyrido[3,2-d]pyrimidin-6-yl}-1,4-diazepan-1-yl)prop-2-en-1-one]: the figures for the IC50 in test [1] and in test [2] were 8.01 µM and 30.6 nM, respectively. Besides, the GI50 in test [3] is 99.5 nM.

`C=CC(=O)N1CC2CCC(C1)N2c1ccc2ncnc(Nc3ccc(Oc4ccn5ncnc5c4)c(C)c3)c2n1` [Compound 17, 1-(8-{4-[(3-methyl-4-{[1,2,4]triazolo[1,5-a]pyridin-7-yloxy}phenyl)amino]pyrido[3,2-d]pyrimidin-6-yl}-3,8-diazabicyclo[3.2.1]octan-3-yl)prop-2-en-1-one]: the IC50 in test [1] amounted to 0.179 µM; in test [2] it was 20.1 nM. In test [3], the GI50 is 5.91 nM.

As to `C=CC(=O)N1C2CCC1CN(c1ccc3ncnc(Nc4ccc(Oc5ccn6ncnc6c5)c(C)c4)c3n1)C2` [Compound 18, 1-(3-{4-[(3-methyl-4-{[1,2,4]triazolo[1,5-a]pyridin-7-yloxy}phenyl)amino]pyrido[3,2-d]pyrimidin-6-yl}-3,8-diazabicyclo[3.2.1]octan-8-yl)prop-2-en-1-one], the IC50 in test [1] is 0.293 µM; in test [2], 13.4 nM. In test [3], the GI50 turned out to be 6.26 nM.

As to `C=CC(=O)N1CCC2(CC1)CN(c1ccc3ncnc(Nc4ccc(Oc5ccn6ncnc6c5)c(C)c4)c3n1)C2` [Compound 19, 1-(2-{4-[(3-methyl-4-{[1,2,4]triazolo[1,5-a]pyridin-7-yloxy}phenyl)amino]pyrido[3,2-d]pyrimidin-6-yl}-2,7-diazaspiro[3.5]nonan-7-yl)prop-2-en-1-one], the half-inhibitory concentration (IC50) in test [1] was above 10 µM; in test [2] it was 98 nM. Also, the GI50 in test [3] came out at 176 nM.

For `C=CC(=O)N1CCC2(CCN(c3ccc4ncnc(Nc5ccc(Oc6ccn7ncnc7c6)c(C)c5)c4n3)C2)C1` (stereo not drawn) [Compound 20, 1-(7-{4-[(3-methyl-4-{[1,2,4]triazolo[1,5-a]pyridin-7-yloxy}phenyl)amino]pyrido[3,2-d]pyrimidin-6-yl}-2,7-diazaspiro[4.4]nonan-2-yl)prop-2-en-1-one], the IC50 is above 10 µM in test [1] and 37.9 nM in test [2]. For the same molecule, the GI50 in test [3] is 21 nM.

As to `C=CC(=O)N1CCC2(C1)CN(c1ccc3ncnc(Nc4ccc(Oc5ccn6ncnc6c5)c(C)c4)c3n1)C2` [Compound 21, 1-(2-{4-[(3-methyl-4-{[1,2,4]triazolo[1,5-a]pyridin-7-yloxy}phenyl)amino]pyrido[3,2-d]pyrimidin-6-yl}-2,6-diazaspiro[3.4]octan-6-yl)prop-2-en-1-one], the IC50 was 9.42 µM in test [1] and 12.1 nM in test [2]. The GI50 in test [3] is 9.76 nM.

As for `CC#CC(=O)N1CCN(c2ccc3ncnc(Nc4ccc(Oc5ccn6ncnc6c5)c(C)c4)c3n2)C[C@@H]1C` [Compound 22, 1-[(2S)-2-methyl-4-{4-[(3-methyl-4-{[1,2,4]triazolo[1,5-a]pyridin-7-yloxy}phenyl)amino]pyrido[3,2-d]pyrimidin-6-yl}piperazin-1-yl]but-2-yn-1-one], the results for the IC50 in test [1] and in test [2] were above 10 µM and 62.8 nM, respectively. For the same molecule, the GI50 in test [3] worked out at 34.9 nM.

In the case of `CC#CC(=O)N1CCN(c2ccc3ncnc(Nc4ccc(Oc5ccn6ncnc6c5)c(C)c4)c3n2)C[C@H]1C` [Compound 23, 1-[(2R)-2-methyl-4-{4-[(3-methyl-4-{[1,2,4]triazolo[1,5-a]pyridin-7-yloxy}phenyl)amino]pyrido[3,2-d]pyrimidin-6-yl}piperazin-1-yl]but-2-yn-1-one], the results for the concentration for half-maximal inhibition (IC50) in test [1] and in test [2] were 0.53 µM and 25.2 nM, respectively. Besides, the GI50 in test [3] is 7.17 nM.

As for `CC#CC(=O)N1CCN(c2ccc3ncnc(Nc4ccc(Oc5ccn6ncnc6c5)c(C)c4)c3n2)[C@H](C)C1` [Compound 24, 1-[(3R)-3-methyl-4-{4-[(3-methyl-4-{[1,2,4]triazolo[1,5-a]pyridin-7-yloxy}phenyl)amino]pyrido[3,2-d]pyrimidin-6-yl}piperazin-1-yl]but-2-yn-1-one], the 50% inhibitory concentration (IC50) is above 10 µM in test [1] and 91.4 nM in test [2]. Further, the GI50 in test [3] amounted to 68.9 nM.

On to `CC#CC(=O)N1CCN(c2ccc3ncnc(Nc4ccc(Oc5ccn6ncnc6c5)c(C)c4)c3n2)[C@@H](C)C1` [Compound 25, 1-[(3S)-3-methyl-4-{4-[(3-methyl-4-{[1,2,4]triazolo[1,5-a]pyridin-7-yloxy}phenyl)amino]pyrido[3,2-d]pyrimidin-6-yl}piperazin-1-yl]but-2-yn-1-one], for which the IC50 in test [1] was above 10 µM; in test [2] it was 63.5 nM. Further, the GI50 in test [3] was 23.4 nM.

Source of the values: patent publication US20250136595A1, “ACYLATED HETEROCYCLIC QUINAZOLINE DERIVATIVES AS INHIBITORS OF ERBB2” (Enliven Inc., priority 2022, published 2025).
